In PubChem BioAssay (NCI):
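Five compound concentrations were applied to cells in 96-well plates for 48 hours; endpoints were derived by simple linear interpolation of the resulting dose-response curve. GI50 marks 50% less growth. At the TGI there is no net growth.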

Key:
Experiment in all cases: NCI tumour cell line growth inhibition, 48 h
[1] = system: NCI-H226 lung
[2] = system: SN12C renal
[3] = system: HOP-92 NSCLC
[4] = system: SW-620 colon
[5] = system: HS 578T breast
[6] = system: BT-549 breast
[7] = system: SK-MEL-5 melanoma
[8] = system: A549 NSCLC
[9] = system: HOP-62 NSCLC
[10] = system: UO-31 renal
[11] = system: OVCAR-8 ovarian
[12] = system: HCT-116 colon
[13] = system: DU-145 prostate
[14] = system: HCC-2998 colon
[15] = system: TK-10 renal
[16] = system: HT29 colon
[17] = system: SF-268 CNS
[18] = system: SK-MEL-28 melanoma
[19] = system: KM12 colon
[20] = system: OVCAR-4 ovarian
[21] = system: EKVX NSCLC
[22] = system: A498 renal
[23] = system: MDA-MB-435
[24] = system: UACC-257 melanoma
[25] = system: OVCAR-3 ovarian
[26] = system: SNB-19 CNS
[27] = system: 786-0 renal
[28] = system: PC-3 prostate
[29] = system: NCI-H522 lung
[30] = system: HCT-15 colon
[31] = system: SF-539 CNS
[32] = system: RXF 393 renal
[33] = system: MDA-MB-231 breast
[34] = system: SK-OV-3 ovarian
[35] = system: OVCAR-5 ovarian
[36] = system: MOLT-4 leukemia
[37] = system: LOX IMVI melanoma
[38] = system: ACHN renal
[39] = system: MCF7 breast
[40] = system: IGROV1 ovarian
[41] = system: NCI/ADR-RES ovarian
[42] = system: CAKI-1 renal
[43] = system: SNB-75 CNS
[44] = system: U251 CNS
[45] = system: SF-295 CNS
[46] = system: SK-MEL-2 melanoma
[47] = system: UACC-62 melanoma
[48] = system: CCRF-CEM leukemia
[49] = system: RPMI-8226 leukemia
[50] = system: NCI-H460 lung
[51] = system: M14 melanoma
[52] = system: COLO 205 colon
[53] = system: K-562 leukemia
[54] = system: NCI-H23 lung

For ClCc1ccccc1Cn1cnc2ncnc(Cl)c21, the GI50 [1] was 3.35 µM, the TGI [1] was 7.89 µM and the GI50 [2] was 2.96 µM. For the same compound, the TGI [2] was 8.5 µM, the GI50 [3] was 4.38 µM and the TGI [3] was 12.8 µM. It also gave a GI50 [4] of 2.24 µM, a TGI [4] of 4.72 µM and a GI50 [5] of 2.29 µM. The TGI [5] was 5.96 µM, the GI50 [6] was 2.45 µM and the TGI [6] was 6.09 µM. For the same compound, the GI50 [7] was 1.37 µM, the TGI [7] was 4.12 µM and the GI50 [8] was 4.44 µM. For the same compound, the TGI [8] was 23.9 µM, the GI50 [9] was 11.1 µM and the TGI [9] was 29 µM. The GI50 [10] was 3.22 µM, the TGI [10] was 10.7 µM and the GI50 [11] was 2.74 µM. For the same compound, the TGI [11] was 8.74 µM, the GI50 [12] was 1.5 µM and the TGI [12] was 4.11 µM. For the same compound, the GI50 [13] was 2.93 µM, the TGI [13] was 10.1 µM and the GI50 [14] was 2.26 µM. The TGI [14] was 4.22 µM, the GI50 [15] was 3.5 µM and the TGI [15] was 9.57 µM. It also gave a GI50 [16] of 3.93 µM, a TGI [16] greater than 100 µM and a GI50 [17] of 4.76 µM. It also gave a TGI [17] of 24.4 µM, a GI50 [18] of 4.47 µM and a TGI [18] of 18.7 µM. The GI50 [19] was 3.6 µM, the TGI [19] was 11.3 µM and the GI50 [20] was 4.94 µM. The TGI [20] was 20.5 µM, the GI50 [21] was 5.33 µM and the TGI [21] was 17.6 µM. For the same compound, the GI50 [22] was 18.6 µM, the TGI [22] was 32.8 µM and the GI50 [23] was 1.95 µM. The TGI [23] was 3.84 µM, the GI50 [24] was 5.88 µM and the TGI [24] was 22.1 µM. The GI50 [25] was 2.06 µM, the TGI [25] was 4.16 µM and the GI50 [26] was 7.3 µM. It also gave a TGI [26] greater than 100 µM, a GI50 [27] of 4.02 µM and a TGI [27] of 12.8 µM. It also gave a GI50 [28] of 4.51 µM, a TGI [28] of 19.2 µM and a GI50 [29] of 2.83 µM. For the same compound, the TGI [29] was 7.64 µM, the GI50 [30] was 1.36 µM and the TGI [30] was 2.91 µM. The GI50 [31] was 2.35 µM, the TGI [31] was 4.98 µM and the GI50 [32] was 1.65 µM. The TGI [32] was 6.5 µM, the GI50 [33] was 2.78 µM and the TGI [33] was 6.97 µM. It also gave a GI50 [34] of 7.57 µM, a TGI [34] of 26.8 µM and a GI50 [35] of 2.84 µM. The TGI [35] was 7.3 µM, the GI50 [36] was 1.65 µM and the TGI [36] was 4.24 µM. It also gave a GI50 [37] of 1.34 µM, a TGI [37] of 3.07 µM and a GI50 [38] of 2 µM. The TGI [38] was 4.27 µM, the GI50 [39] was 3.64 µM and the TGI [39] was greater than 100 µM. For the same compound, the GI50 [40] was 4.28 µM, the TGI [40] was 22.7 µM and the GI50 [41] was 2.1 µM. For the same compound, the TGI [41] was 4.47 µM, the GI50 [42] was 2.36 µM and the TGI [42] was 4.21 µM. It also gave a GI50 [43] of 11.3 µM, a TGI [43] of 26.6 µM and a GI50 [44] of 1.92 µM. The TGI [44] was 4.4 µM, the GI50 [45] was 7.93 µM and the TGI [45] was 20.5 µM. The GI50 [46] was 4.2 µM, the TGI [46] was 19.7 µM and the GI50 [47] was 1.88 µM. The TGI [47] was 5.12 µM, the GI50 [48] was 1.45 µM and the TGI [48] was 3.53 µM. It also gave a GI50 [49] of 2.09 µM, a TGI [49] of 5.45 µM and a GI50 [50] of 13.5 µM. It also gave a TGI [50] of 60.9 µM, a GI50 [51] of 1.92 µM and a TGI [51] of 5.17 µM. For the same compound, the GI50 [52] was 4.33 µM, the TGI [52] was greater than 100 µM and the GI50 [53] was 2.23 µM. The TGI [53] was 5.86 µM, the GI50 [54] was 4.97 µM and the TGI [54] was 17.6 µM.
